Earlier results in patent US20240166770A1, “COMPOSITIONS AND METHODS FOR INHIBITION OF CELL-PENETRATING ANTIBODIES” (Yale University, priority 2019, published 2024).
pIC50: −log10 of the molar value. Like-named read-outs stand apart in the source and are kept apart here.

What was measured:
Details in all cases: cited from earlier work
ENT2 = biological target: T1, ENT2 (Homo sapiens, UniProt Q14542)
T1 sequence (Q14542 1-456): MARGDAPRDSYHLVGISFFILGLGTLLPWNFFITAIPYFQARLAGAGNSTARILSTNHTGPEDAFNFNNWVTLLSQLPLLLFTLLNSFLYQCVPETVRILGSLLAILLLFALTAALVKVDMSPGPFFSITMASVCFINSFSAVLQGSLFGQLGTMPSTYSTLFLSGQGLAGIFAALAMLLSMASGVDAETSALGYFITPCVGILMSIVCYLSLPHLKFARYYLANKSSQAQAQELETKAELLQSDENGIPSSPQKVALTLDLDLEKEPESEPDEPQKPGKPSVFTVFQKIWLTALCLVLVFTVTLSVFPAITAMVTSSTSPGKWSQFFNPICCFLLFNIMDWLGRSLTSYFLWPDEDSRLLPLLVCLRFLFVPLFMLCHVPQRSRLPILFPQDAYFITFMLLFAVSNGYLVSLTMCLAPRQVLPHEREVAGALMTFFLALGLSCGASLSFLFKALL

hENT4 = biological target: T2, hENT4 (Homo sapiens, UniProt Q7RTT9)
T2 sequence (Q7RTT9 1-530): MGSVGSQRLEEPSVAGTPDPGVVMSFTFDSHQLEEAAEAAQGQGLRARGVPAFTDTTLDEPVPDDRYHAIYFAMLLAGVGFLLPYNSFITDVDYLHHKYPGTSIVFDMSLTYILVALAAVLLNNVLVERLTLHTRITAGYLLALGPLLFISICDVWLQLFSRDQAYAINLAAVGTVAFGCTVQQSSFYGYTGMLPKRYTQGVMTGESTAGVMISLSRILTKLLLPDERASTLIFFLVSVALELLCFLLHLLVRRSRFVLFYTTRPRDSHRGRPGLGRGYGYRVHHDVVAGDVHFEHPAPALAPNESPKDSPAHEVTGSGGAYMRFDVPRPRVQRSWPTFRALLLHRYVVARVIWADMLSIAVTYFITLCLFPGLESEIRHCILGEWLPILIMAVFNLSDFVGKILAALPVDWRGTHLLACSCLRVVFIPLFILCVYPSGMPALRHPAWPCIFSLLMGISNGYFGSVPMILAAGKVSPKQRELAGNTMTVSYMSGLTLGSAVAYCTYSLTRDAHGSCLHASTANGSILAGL

hENT1 = biological target: T3, hENT1 (Homo sapiens, UniProt Q99808)
T3 sequence (Q99808 1-456): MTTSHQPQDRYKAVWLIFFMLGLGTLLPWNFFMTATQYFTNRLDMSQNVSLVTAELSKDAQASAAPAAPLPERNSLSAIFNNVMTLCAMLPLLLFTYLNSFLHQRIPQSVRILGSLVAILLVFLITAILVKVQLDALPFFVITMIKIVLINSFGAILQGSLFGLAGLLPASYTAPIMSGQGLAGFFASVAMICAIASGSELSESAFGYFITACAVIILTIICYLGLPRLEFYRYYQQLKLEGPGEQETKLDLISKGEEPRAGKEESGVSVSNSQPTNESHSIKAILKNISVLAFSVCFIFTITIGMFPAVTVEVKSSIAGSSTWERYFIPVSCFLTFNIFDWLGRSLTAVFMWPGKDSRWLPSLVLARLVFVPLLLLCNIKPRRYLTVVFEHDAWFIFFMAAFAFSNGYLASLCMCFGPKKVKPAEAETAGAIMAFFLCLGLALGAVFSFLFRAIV

[1] = Table 1, different ring systems at the 4- and 8-positions
[2] = Table 2, opening chain analogues
[3] = Table 3, free hydrogen on the nitrogen of 4- and 8-position substituents
[4] = Table 4, modification at hydroxyl groups of dipyridamole

## OCCNc1nc(N2CCCCC2)c2nc(NCCO)nc(N3CCCCC3)c2n1 [compound 1]
ENT2; [1]
  pIC50: 5.13
hENT4; [1]
  pIC50: 5.66

## OCCN(CCO)c1nc(N2CCCC2)c2nc(N(CCO)CCO)nc(N3CCCC3)c2n1 [compound 2]
ENT2; [1]
  pIC50: 6.25

## OCCN(CCO)c1nc(N2CCOCC2)c2nc(N(CCO)CCO)nc(N3CCOCC3)c2n1 [compound 4]
ENT2; [1]
  pIC50: 5.39

## CC(C)(C)OC(=O)N1CCN(c2nc(N(CCO)CCO)nc3c(N4CCN(C(=O)OC(C)(C)C)CC4)nc(N(CCO)CCO)nc23)CC1 [compound 7]
ENT2; [1]
  pIC50: 5.65
hENT1; [1]
  pIC50: 6.24

## OCCN(CCO)c1nc(N2CCCCCC2)c2nc(N(CCO)CCO)nc(N3CCCCCC3)c2n1 [compound 11]
ENT2; [1]
  pIC50: 6.93
hENT4; [1]
  pIC50: 6.42

## OCCN(CCO)c1nc(N2CCCCCCC2)c2nc(N(CCO)CCO)nc(N3CCCCCCC3)c2n1 [compound 13]
ENT2; [1]
  pIC50: 7.04
hENT4; [1]
  pIC50: 6.39

## OCCNc1nc(N2CCCCCCC2)c2nc(NCCO)nc(N3CCCCCCC3)c2n1 [compound 14]
ENT2; [1]
  pIC50: 5.28
hENT4; [1]
  pIC50: 6.74

## OCCN(CCO)c1nc(N2CCCCCCCC2)c2nc(N(CCO)CCO)nc(N3CCCCCCCC3)c2n1 [compound 15]
ENT2; [1]
  pIC50: 5.63
hENT4; [1]
  pIC50: 5.88

## OCCN(CCO)c1nc(N2C3CCCC2CC3)c2nc(N(CCO)CCO)nc(N3C4CCCC3CC4)c2n1 [compound 17]
ENT2; [1]
  pIC50: 6.49

## OCCN(CCO)c1nc(N2CC3CC4CC(C3)CC2C4)c2nc(N(CCO)CCO)nc(N3CC4CC5CC(C4)CC3C5)c2n1 [compound 19]
hENT4; [1]
  pIC50: 6.70
hENT1; [1]
  pIC50: 6.41

## OCCNc1nc(N2CC3CC4CC(C3)CC2C4)c2nc(NCCO)nc(N3CC4CC5CC(C4)CC3C5)c2n1 [compound 20]
hENT4; [1]
  pIC50: 6.22
hENT1; [1]
  pIC50: 5.84

## CCN(CC)c1nc(N(CCO)CCO)nc2c(N(CC)CC)nc(N(CCO)CCO)nc12 [compound 23]
ENT2; [2]
  pIC50: 5.53
hENT4; [2]
  pIC50: 5.38

## CCCN(CCC)c1nc(N(CCO)CCO)nc2c(N(CCC)CCC)nc(N(CCO)CCO)nc12 [compound 25]
ENT2; [2]
  pIC50: 5.42
hENT4; [2]
  pIC50: 6.63
hENT1; [2]
  pIC50: 6.71

## CCCCN(CCCC)c1nc(N(CCO)CCO)nc2c(N(CCCC)CCCC)nc(N(CCO)CCO)nc12 [compound 27]
ENT2; [2]
  pIC50: 5.48
hENT4; [2]
  pIC50: 5.53

## CC(C)CN(CC(C)C)c1nc(N(CCO)CCO)nc2c(N(CC(C)C)CC(C)C)nc(N(CCO)CCO)nc12 [compound 29]
ENT2; [2]
  pIC50: 5.71
hENT4; [2]
  pIC50: 5.77
hENT1; [2]
  pIC50: 5.58

## CCCCCN(CCCCC)c1nc(N(CCO)CCO)nc2c(N(CCCCC)CCCCC)nc(N(CCO)CCO)nc12 [compound 31]
hENT4; [2]
  pIC50: 4.34

## CC(C)CCN(CCC(C)C)c1nc(N(CCO)CCO)nc2c(N(CCC(C)C)CCC(C)C)nc(N(CCO)CCO)nc12 [compound 33]
hENT4; [2]
  pIC50: 4.35

## COCCN(CCOC)c1nc(N(CCO)CCO)nc2c(N(CCOC)CCOC)nc(N(CCO)CCO)nc12 [compound 35]
ENT2; [2]
  pIC50: 5.68
hENT4; [2]
  pIC50: 3.99
hENT1; [2]
  pIC50: 6.27

## OCCN(CCO)c1nc(N(Cc2ccccc2)Cc2ccccc2)c2nc(N(CCO)CCO)nc(N(Cc3ccccc3)Cc3ccccc3)c2n1 [compound 37]
hENT4; [2]
  pIC50: 4.16

## CNc1nc(N(CCO)CCO)nc2c(NC)nc(N(CCO)CCO)nc12 [compound 40]
hENT1; [3]
  pIC50: 5.07

## CCNc1nc(N(CCO)CCO)nc2c(NCC)nc(N(CCO)CCO)nc12 [compound 42]
hENT1; [3]
  pIC50: 6.11

## CCCNc1nc(N(CCO)CCO)nc2c(NCCC)nc(N(CCO)CCO)nc12 [compound 44]
ENT2; [3]
  pIC50: 5.46
hENT4; [3]
  pIC50: 4.79

## CC(C)Nc1nc(N(CCO)CCO)nc2c(NC(C)C)nc(N(CCO)CCO)nc12 [compound 46]
ENT2; [3]
  pIC50: 5.52
hENT4; [3]
  pIC50: 4.58

## CCCCNc1nc(N(CCO)CCO)nc2c(NCCCC)nc(N(CCO)CCO)nc12 [compound 48]
ENT2; [3]
  pIC50: 5.55
hENT4; [3]
  pIC50: 5.73

## CC(C)CNc1nc(N(CCO)CCO)nc2c(NCC(C)C)nc(N(CCO)CCO)nc12 [compound 50]
ENT2; [3]
  pIC50: 5.83
hENT4; [3]
  pIC50: 5.51
hENT1; [3]
  pIC50: 6.90

## CC(C)(C)Nc1nc(N(CCO)CCO)nc2c(NC(C)(C)C)nc(N(CCO)CCO)nc12 [compound 52]
hENT4; [3]
  pIC50: 6.12

## CCCCCNc1nc(N(CCO)CCO)nc2c(NCCCCC)nc(N(CCO)CCO)nc12 [compound 54]
ENT2; [3]
  pIC50: 5.32
hENT4; [3]
  pIC50: 6.22

## CC(C)CCNc1nc(N(CCO)CCO)nc2c(NCCC(C)C)nc(N(CCO)CCO)nc12 [compound 56]
ENT2; [3]
  pIC50: 5.71
hENT4; [3]
  pIC50: 6.31

## CCC(C)(C)Nc1nc(N(CCO)CCO)nc2c(NC(C)(C)CC)nc(N(CCO)CCO)nc12 [compound 58]
hENT4; [3]
  pIC50: 6.09
hENT1; [3]
  pIC50: 7.10

## OCCN(CCO)c1nc(NC2CC2)c2nc(N(CCO)CCO)nc(NC3CC3)c2n1 [compound 60]
ENT2; [3]
  pIC50: 5.57
hENT4; [3]
  pIC50: 4.42

## OCCN(CCO)c1nc(NC2CCC2)c2nc(N(CCO)CCO)nc(NC3CCC3)c2n1 [compound 62]
ENT2; [3]
  pIC50: 6.14
hENT4; [3]
  pIC50: 4.80

## OCCNc1nc(NC2CCC2)c2nc(NCCO)nc(NC3CCC3)c2n1 [compound 63]
ENT2; [3]
  pIC50: 5.11
hENT1; [3]
  pIC50: 5.73

## OCCN(CCO)c1nc(NC2CCCC2)c2nc(N(CCO)CCO)nc(NC3CCCC3)c2n1 [compound 64]
ENT2; [3]
  pIC50: 5.88
hENT4; [3]
  pIC50: 4.91

## OCCN(CCO)c1nc(NC2CCCCC2)c2nc(N(CCO)CCO)nc(NC3CCCCC3)c2n1 [compound 66]
hENT4; [3]
  pIC50: 3.91

## OCCN(CCO)c1nc(Nc2ccccc2)c2nc(N(CCO)CCO)nc(Nc3ccccc3)c2n1 [compound 68]
hENT1; [3]
  pIC50: 5.95

## OCCNc1nc(NCc2ccccc2)c2nc(NCCO)nc(NCc3ccccc3)c2n1 [compound 71]
hENT4; [3]
  pIC50: 5.75

## OCCOc1nc(N2CCCCC2)c2nc(OCCO)nc(N3CCCCC3)c2n1 [compound 72]
ENT2; [4]
  pIC50: 5.75

## C1CCN(c2nc(N3CCOCC3)nc3c(N4CCCCC4)nc(N4CCOCC4)nc23)CC1 [compound 73]
hENT1; [4]
  pIC50: 5.79

## O=COCCN(CCOC=O)c1nc(N2CCCCC2)c2nc(N(CCOC=O)CCOC=O)nc(N3CCCCC3)c2n1 [compound 74]
ENT2; [4]
  pIC50: 6.27
hENT1; [4]
  pIC50: 7.16

## CC(=O)OCCN(CCOC(C)=O)c1nc(N2CCCCC2)c2nc(N(CCOC(C)=O)CCOC(C)=O)nc(N3CCCCC3)c2n1 [compound 75]
ENT2; [4]
  pIC50: 6.15
hENT4; [4]
  pIC50: 4.85

## COCCN(CCOC)c1nc(N2CCCCC2)c2nc(N(CCOC)CCOC)nc(N3CCCCC3)c2n1 [compound 76]
ENT2; [4]
  pIC50: 5.83
hENT4; [4]
  pIC50: 5.74

## CCOCCN(CCOCC)c1nc(N2CCCCC2)c2nc(N(CCOCC)CCOCC)nc(N3CCCCC3)c2n1 [compound 77]
hENT4; [4]
  pIC50: 4.52
hENT1; [4]
  pIC50: 6.11

## CCCOCCN(CCOCCC)c1nc(N2CCCCC2)c2nc(N(CCOCCC)CCOCCC)nc(N3CCCCC3)c2n1 [compound 78]
hENT4; [4]
  pIC50: 3.85

## CC(C)OCCN(CCO)c1nc(N2CCCCC2)c2nc(N(CCO)CCOC(C)C)nc(N3CCCCC3)c2n1 [compound 79]
ENT2; [4]
  pIC50: 6.76
hENT1; [4]
  pIC50: 7.17
